Test results published in patent US9718781B2, “Methods and compounds for treating proliferative disorders and viral infections” (University College Dublin, National University of Ireland, …, priority 2012, dated 2017).
Where “and” joins values, the source holds several entries; their conditions need not be identical. Equal values may be shown once.

Key:
human platelets [1] = test: ADP-induced platelet aggregation of human platelets ex vivo; format: cell-based
From the text: (§1) The method of assessing platelet aggregation also allows evaluation of the effect of the compounds of the invention on platelet aggregation upon stimulation by other agonists, e.g., adenosine diphosphate (ADP) and thrombin.

human platelets [2] = test: Thrombin-induced platelet aggregation of human platelets ex vivo; format: cell-based
From the text: as §1

[3] = test system: MDA-MB-231-2003 breast cancer cells; test: Experimental metastasis breast tumor xenograft model in SCID mice; format: in vivo; settings: 360 μg/kg i.p. 24 hr and 4 hr before tumor cell injection
Protocol: An anticancer agent including a compound represented by formula X (hereinafter “X”) was evaluated for the ability to inhibit tumor growth and experimental metastasis in a breast tumor xenograft model in immunocompromised (SCID) mice.
MDA-MB-231-2003 breast cancer cells (1×10^6 in 0.1 ml PBS) were injected into the lateral tail vein of female SCID mice and the ability of X to inhibit metastasis to the lung was investigated (n=5 for the test X treated-mice or n=4 for the control PBS-treated mice). Mice were initially treated via intraperitoneal (i.p.) injection with either X (360 μg/kg; ˜5 μM final concentration in blood; the “test” mice) or with PBS (the “control” mice) some 24 hr. before tumor cell injection. A second injection (i.p.) was given at the same dosage of X (360 μg/kg) at 4 hr. before tumor cell injection to the test mice while the control mice received an equivalent volume of PBS before tumor cell injection. […] Thereafter, all mice were monitored by image analysis (IVIS® imaging system) every two weeks for tumor cells in their lungs and were sacrificed at day 28 post tumor cell injection.

[4] = test system: MDA-MB-231-D3H2LN-Luc cells; test: Spontaneous/orthotopic breast cancer model, mammary fat pad injection; format: in vivo; settings: for First Appearance of Mets, Mean ± S.E.M.: lymph node metastases; for Day of Sacrifice Mean ± S.E.M.: primary tumor reaching 15 mm
From the text: In order to further assess the efficacy of TP20 for use as an anti-cancer, affecting primary tumor growth, and/or as an anti-metastatic agent, a spontaneous/orthotopic cancer model was employed by injection of the triple negative MDA-MB-231 breast cancer cell line (ER, PR, Her2 negative) into the mammary fat pad of immune compromised Balb-C nude mice. More specifically, in order to increase the growth rate of the primary tumor and increase the incidence of metastasis, a more aggressive variant of the MDA-MB-231 cell line, namely MDA-MB-231-D3H2LN-Luc (Jenkins et al., (2005), Breast Cancer Res, 7, 444-454), was used in the studies described below. Furthermore, the latter MDA-MB-231-D3H2LN-Luc cell line stably over-expresses the firefly luciferase gene (Luc) thereby enabling monitoring and in vivo detection of both the primary tumor and of the secondary metastasis by bioluminescent imaging in addition to assessment of the growth of the primary tumor by standard caliper measurements. In total, three groups of animals were studied and the diagram below gives an overview of the study design. FIG. 7 provides a diagram of a study design.
Body weights of the BALB/c nude mice were recorded prior to initiating the study and, thereafter, 3 times per week (Monday, Wednesday & Friday) following the mammary fat pad injection up to the point of sacrifice or death of the animal, as per welfare guidelines. Animals were typically sacrificed once the primary tumor reached 15 mm or, as required, if animals needed to be culled for welfare reasons.
BALB/C-nude mice (female, 5-7 weeks old) were pre-treated 24 and 4 hr with TP20 at 0.36 mg/kg (blue line; Group 1), 1 mg/kg (red line; Group 2) or as control, vehicle (1% DMSO in PBS; black line; Group 3) prior to injecting MDA-MB-231-D3H2LN-Luc cells (50 μl, 2×106 suspended in 50% DPBS/50% Matrigel) into the mammary fat pad with a 27.5 G needle. Thereafter, mice were treated with TP20 or vehicle thrice weekly (Monday, Wednesday & Friday) until the primary tumor width reached 15 mm. Body weight was monitored 3 times per week. The data presented represents the mean (FIG. 8A; ±S.E.M.) or Percentage in Body Weight (FIG. 8B; ±S.E.M.), where weight at day −1 is 100%.
Through the duration of the study to monitor the growth of the primary (1°) tumor, for welfare and experimental reasons, caliper measurements were performed thrice weekly (i.e., Monday, Wednesday & Friday) and involved measuring the width and length of the primary tumor mass. These measurements were then used in the following formula to calculate the tumor volume (mm3): Volume of Tumor (mm3)=length×width2×0.5
BALB/C-nude mice (female, 5-7 weeks old) were pre-treated 24 and 4 hr with TP20 at 0.36 mg/kg (blue line; Group 1), 1 mg/kg (red line; Group 2) or as control, vehicle (1% DMSO; black line; Group 3) prior to injecting MDA-MB-231-D3H2LN-Luc cells (50 μl, 2×106 suspended in 50% DPBS/50% Matrigel) into the mammary fat pad with a 27.5 G needle. Thereafter, mice were treated with TP20 or vehicle thrice weekly (Monday, Wednesday & Friday) until the primary tumor diameter reached 15 mm. Primary tumor growth was monitored thrice weekly using caliper measurements where tumor volume (mm3) is calculated by the formula Volume=Length×width2×0.5. The data presented represents the mean (±S.E.M.) tumor volume (mm3) for each of the treatment groups as a function of time (days). Fine black lines represent the linear trend for each of the treatment groups.
As the 1° tumors reached 15 mm in diameter, for welfare reasons the animals were sacrificed. The day of sacrifice was analyzed using Kaplan-Meier survival analysis and subsequent Log-Rank and Wilcoxon tests to compare any differences between the treatments groups in terms of time of death. […]

[5] = test system: A/Puerto Rico/8/1934 (H1N1) influenza A virus; format: in vivo, BALB/c mice
[6] = Phase 1 safety/tolerability study, repeat oral dosing; settings: 360 μg/kg oral gavage twice daily
From the text: Data is presented as mean body weight (±S.E.M.; FIG. 12A) or as mean percentage change in body weight (±S.E.M.; FIG. 12B) as a function of time.

[7] = lung, Day 4, Tamiflu 10 mg/kg, TP20 0.36 mg/kg
[8] = lung, Day 4, number of animals of 3

In the case of `COc1ccc(-c2cccc(Oc3ccc([N+](=O)[O-])cc3S(=O)(=O)NC(=O)NC(C)(C)C)c2)cc1` [TP20, N-(tert-butylcarbamoyl)-2-((4′-methoxy-[1,1′-biphenyl]-3-yl)oxy)-5-nitrobenzene-sulfonamide], the “effect on ADP-induced platelet aggregation” value (human platelets [1]) is reported as “did not affect”, the “effect on thrombin-induced platelet aggregation” value (human platelets [2]) is reported as “did not affect” and the lung tumor development ([3]; day 28) is reported as “did not develop any tumors”. For the same compound, the “mice surviving to the end of the experiment (day 28)” value ([3]; n=5) was 5, the “effect on primary tumor growth” value ([4]; 0.36 mg/kg and 1 mg/kg vs. vehicle) was “significantly decreases the primary tumor growth” and the “tolerability of repeat administration (body weight)” value ([4]; 0.36 mg/kg and 1 mg/kg, thrice weekly) was “well-tolerated”. The “First Appearance of Mets, Mean ± S.E.M.” value ([4]; Group 1, 0.36 mg/kg) was 22.5 ± 2.16 (N = 8) days, the “Day of Sacrifice Mean ± S.E.M.” value ([4]; Group 1, 0.36 mg/kg) was 38.5 ± 2.83 (N = 8) days and the “First Appearance of Mets, Mean ± S.E.M.” value ([4]; Group 2, 1 mg/kg) was 26.2 ± 3.71 (N = 9) days. For the same compound, the “Day of Sacrifice Mean ± S.E.M.” value ([4]; Group 2, 1 mg/kg) was 38.4 ± 3.86 (N = 7) days, the “mean time of death post-viral challenge” value ([5]; TP20 360 μg/kg oral gavage twice daily) was 7.2 days and the “loss of body weight post-viral infection” value ([5]; Tamiflu 10 mg/kg, TP20 360 μg/kg, oral gavage twice daily) was no more than 30%. For the same compound, the “Alveolar Acute Inflammation, number of animals with the finding” value ([5]; lung, Day 4, 3 animals) was “(0)”, the “Bronchiolar Erosion, number of animals with the finding” value ([5]; lung, Day 4, 3 animals) was “(3)” and the “Bronchiolar Exudate, number of animals with the finding” value ([5]; lung, Day 4, 3 animals) was “(3)”. For the same compound, the “Bronchiolar acute Inflammation, number of animals with the finding” value ([5]; lung, Day 4, 3 animals) was “(3)”, the “Vascular Necrosis, number of animals with the finding” value ([5]; lung, Day 4, 3 animals) was “(0)” and the “Extent of Perivascular Edema (Mean ± S.E.M.), Per Animal” value [5, 7] was 16.9 ± 1.09 (70) arbitrary units and 17.4 ± 0.98 (89) arbitrary units and 19.2 ± 1.10 (78) arbitrary units. For the same compound, the “Extent of Perivascular Edema (Mean ± S.E.M.), Per Treatment Group” value [5, 7] was 18.0 ± 0.59 arbitrary units, the “reduction in the perivascular edema compared to vehicle” value [5, 7] was “approx. 20%” and the “Bronchiolar Erosion, Mild” value [5, 8] was 3. The “Bronchiolar Erosion, Minimal” value [5, 8] was 0, the “Bronchiolar Erosion, Moderate” value [5, 8] was 0 and the “Bronchiolar Exudate, Mild” value [5, 8] was 1. The “Bronchiolar Exudate, Minimal” value [5, 8] was 2, the “Bronchiolar Exudate, Moderate” value [5, 8] was 0 and the “Bronchiolar acute Inflammation, Mild” value [5, 8] was 0. The “Bronchiolar acute Inflammation, Minimal” value [5, 8] was 3, the “Perivascular Edema, Mild” value [5, 8] was 0 and the “Perivascular Edema, Minimal” value [5, 8] was 3. The “Perivascular Edema, number of animals with the finding” value ([5]; mouse, in vivo) was “(3)”, the tolerability [6] was “well tolerated with no safety issues/concerns” and the “survival on repeat dosing” value ([6]; 14 days monitoring) was “All mice survived”. For the same compound, the weight loss ([6]; at Day 7) was roughly 4%.
